One data set has as its system ENaCα mRNA. Briefly: Screening of ENaCα siNAs in human A549 cells (quantitative RT-PCR). Format: cell-based. The arrangement: Percent Reduction of the ENaCα mRNA relative to a non-targeting control siNA (NTC): concentration or dose not given beside the values. The conditions noted are these: for Avg ENaCα Expression / Mean (level of ENaCα expression normalized to the level of GAPDH) / Percent Reduction of the ENaCα mRNA relative to a non-targeting control siNA (NTC) / Avg GAPDH Expression: human A549 cells, n = 3; for Avg ENaCα Expression: 25 nM siNA with Lipofectamine 2000, harvested 24 hours post-transfection; for Mean (level of ENaCα expression normalized to the level of GAPDH) / Percent Reduction of the ENaCα mRNA relative to a non-targeting control siNA (NTC) / Avg GAPDH Expression: 24 hours post-transfection; for Avg GAPDH Expression: housekeeping gene used for normalisation; for IC50 / Human % KD (efficacy of ENaCα mRNA knockdown): human cell line; for IC50: dose response, read-out: Human IC50 (potency of ENaCα mRNA knockdown); for Human % KD (efficacy of ENaCα mRNA knockdown): summary. The protocol: siNA constructs (Table 1b) may be tested for efficacy in reducing ENaC RNA expression in, for example, A549 human lung carcinoma cells. A549 (human; ATCC cat# CCL-185) cells were cultured at 37° C. in the presence of 5% CO2 and grown in Ham's F12K medium with 2 mM L-glutamine adjusted to contain 1.5 g/L sodium bicarbonate and supplemented with fetal bovine serum at a final concentration of 10% and 100 U/mL penicillin. The A549 cells were plated approximately 24 hours before transfection in 96-well plates at 7,500 cells/well, 100 μl/well. After 24 hours complexes containing siNA and Lipofectamine 2000 (Invitrogen) were created as follows: a solution of Lipofectamine 2000 in OPTI-MEM was prepared containing Lipofectamine 2000 at a final concentration of 14 μg/ml. In parallel, solutions of the siNAs were prepared in OPTI-MEM at a final concentration of 150 nM. After both solutions were incubated at 20° C. for 20 minutes an equal volume of the siNA solutions and the Lipofectamine 2000 solution were added together for each of the siNAs. The resultant solution has the siNAs at a final concentration of 75 nM and Lipofectamine 2000 at a final concentration of 7 μg/ml. This solution was incubated at 20° C. for 20 minutes. After incubation 50 μl of the solution were added to each of the wells (in triplicate). The final concentration of siNA in each well was 25 nM and the final concentration of Lipofectamine 2000 in each well was 2.33 μg/ml. […] Dose response curves were determined in a similar manner with each concentration being done in triplicate and maintaining a constant amount of Lipofectamine 2000 in each transfection.
RNA was extracted from 96-well plates using the Invitek Invisorb RNA Cell HTS 96 Kit/C (Cat# 70619000) with a slightly modified protocol. The details of the protocol for isolating RNA from each plate are described as follows:
1) Aspirate media with rake 2) Add 150 ul/well Lysis buffer 3) Place on plate shaker for 1 minute 4) Place DNA binding plate on top of 0.5 ml collection plate 5) Pipette 190 ul up and down twice and add to DNA binding plate 6) Cover plate 7) Centrifuge plates 4 minutes at 4000 RPM 8) Discard DNA binding plate 9) Place the RNA binding plate on top of 2 ml collection plate 10) Add 150 ul/well of Binding Buffer R to 0.5 ml collection plate 11) Move contents of 0.5 ml collection plate to RNA binding plate 12) Let incubate for 1 minute 13) Centrifuge plates 4 minutes at 4000 RPM 14) Add 600 ul/well of Wash Buffer R1 to RNA binding plate 15) Centrifuge plates 4 minutes at 4000 RPM 16) Dump wash buffer from 2 ml collection plate 17) Add 400 ul/well of Wash Buffer R2 to RNA binding plate 18) Centrifuge plates 4 minutes at 4000 RPM 19) Add 400 ul/well of Wash Buffer R2 to RNA binding plate 20) Centrifuge plates 10 minutes at 4000 RPM 21) Dump wash buffer from 2 ml collection plate 22) Centrifuge plates 3 minutes at 4000 RPM 23) Discard 2 ml collection plate and place RNA binding plate on to microtiter plate 24) Add 100 ul/well of elution buffer to RNA binding plate 25) Incubate for 2 minutes 26) Seal plate 27) Centrifuge plates 3 minutes at 4000 RPM 28) Discard RNA binding plate 29) Cover microtiter plate for storage in −80 freezer
A series of probes and primers were used to detect the various mRNA transcripts of the genes of ENaCa and GAPDH in mouse, rat, and human cell lines. The assays were performed on an ABI 7500 instrument, according to the manufacturer's instructions. Within each experiment, the baseline was set in the exponential phase of the amplification curve, and based on the intersection point of the baselines with the amplification curve, a Ct value was assigned by the instrument. This Ct value was then assigned a QTY value based on the Standard Curve. The standard curve in the various experiments herein used 1 ng to 300 ng of RNA extracted from the same cell line used for the experimental transfections. […]

Another data set deals with rSCNN1A (r ENaCα) mRNA. The data set can be described thus: Screening of ENaCα siNAs in Rat H-4-II-E cells (quantitative RT-PCR). Format: cell-based. The arrangement: Percent Reduction of the r ENaCα mRNA relative to a non-targeting control siNA (NTCs) / Rat % KD (efficacy of ENaCα mRNA knockdown): concentration or dose not given beside the values. As to conditions: for Mean (rSCNN1A expression normalized to the level of rGAPDH) / Percent Reduction of the r ENaCα mRNA relative to a non-targeting control siNA (NTCs) / Avg ENaCα Expression (rSCNN1A) / Avg GAPDH Expression (rGAPDH): Rat H-4-II-E cells, n = 3; for Mean (rSCNN1A expression normalized to the level of rGAPDH) / Percent Reduction of the r ENaCα mRNA relative to a non-targeting control siNA (NTCs) / Avg GAPDH Expression (rGAPDH): 24 hours post-transfection; for Avg ENaCα Expression (rSCNN1A): harvested 24 hours post-transfection; for Avg GAPDH Expression (rGAPDH): housekeeping gene used for normalisation; for IC50 / Rat % KD (efficacy of ENaCα mRNA knockdown): rat cell line; for IC50: dose response, read-out: Rat IC50 (potency of ENaCα mRNA knockdown); for Rat % KD (efficacy of ENaCα mRNA knockdown): summary. The protocol:
A series of probes and primers were used to detect the various mRNA transcripts of the genes of ENaCa and GAPDH in mouse, rat, and human cell lines. The assays were performed on an ABI 7500 instrument, according to the manufacturer's instructions. Within each experiment, the baseline was set in the exponential phase of the amplification curve, and based on the intersection point of the baselines with the amplification curve, a Ct value was assigned by the instrument. This Ct value was then assigned a QTY value based on the Standard Curve. The standard curve in the various experiments herein used 1 ng to 300 ng of RNA extracted from the same cell line used for the experimental transfections.
All IC50 values were calculated from the data using GraphPad Prizm software, specifically a sigmoidal, variable slope curve for simple ligand binding. Also, unless otherwise indicated, all calculations of the efficacy and potency (e.g., % knockdown) of the siNAs were done relative to a non-targeting control siNA. If reported, P-values were computed using The Students t-test, including the Welch Correction for unequal variances.
In all of the calculations of the % knock-down of mRNA, the calculation was made relative to the normalized level of expression of the gene of interest in the samples treated with the non-targeting control (NTC) unless otherwise indicated. The gene of interest expression level was divided by the level of expression of GAPDH or 36B4 (depending on the species) in each sample. The three replicates for each condition in each experiment were averaged and the standard deviation of those samples was calculated. The following formula was then used to calculate the % of knock-down of the gene of interest:
The ENaCα siNAs were designed and synthesized as described previously. The siNAs were screened in three cell lines. Human A549 cells, mouse NIH 3T3 and Rat H-4-II-E cells. The data from the screen of ENaCa siNAs in all three species is shown in Tables 3a, 3b, 4a, 4b, 5a, and 5b and a summary of the data for certain siNA molecules is presented in Table 6. Each screen was performed at 24 hrs. The decision to use this time point was based upon the degree of knockdown of the mRNA seen at that time point.

[invAb] = inverted abasic unit; m = 2'-O-methyl; r = 2'-OH (RNA); f = 2'-fluoro

A word on the IC50: it is the point on the concentration scale where inhibition reaches its midpoint.

As to “B GcuGuGccuAcAucuucuA TTB / UAGAAGAuGuAGGcAcAGcUU (sense GCUGUGCCUACAUCUUCUATT; antisense UAGAAGAUGUAGGCACAGCUU; siRNA; B caps on sense ends, letter-case modifications not given here, further chemistry not given here) [Site 1388]”, in the data set with ENaCα mRNA, the “Avg ENaCα Expression” value is listed as 36.49, the “Mean (level of ENaCα expression normalized to the level of GAPDH)” value is 0.30, the “Percent Reduction of the ENaCα mRNA relative to a non-targeting control siNA (NTC)” value stood at 54.1% and the “Avg GAPDH Expression” value was determined as 120.24. Also, in the data set on ENaCα mRNA, the 50% inhibitory concentration (IC50) came out at 0.19 nM and the “Human % KD (efficacy of ENaCα mRNA knockdown)” value is reported as 55-80%. Moreover, in the data set on rSCNN1A (r ENaCα) mRNA, the “Mean (rSCNN1A expression normalized to the level of rGAPDH)” value was determined as 0.32, the “Percent Reduction of the r ENaCα mRNA relative to a non-targeting control siNA (NTCs)” value was 65.6%, the “Avg ENaCα Expression (rSCNN1A)” value was 11.65 and the “Avg GAPDH Expression (rGAPDH)” value was determined as 37.10. In addition, in the data set on rSCNN1A (r ENaCα) mRNA, the concentration for half-maximal inhibition (IC50) amounted to 0.9 nM and the “Rat % KD (efficacy of ENaCα mRNA knockdown)” value was determined as 65%.

On to “B GuGGcuGuGccuAcAucuu TTB / AAGAuGuAGGcAcAGccAcUU (sense GUGGCUGUGCCUACAUCUUTT; antisense AAGAUGUAGGCACAGCCACUU; siRNA; sense: DNA at AGT, 2'-fluoro at CU, [invAb] at 5' end, 3' end, backbone not given here; antisense: sugars from the 5' end rrrmfmfmmmfmfmmffmfmm, backbone not given here) [Site 1385]”, for which, in the data set with ENaCα mRNA, the “Avg ENaCα Expression” value came out at 90.81, the “Mean (level of ENaCα expression normalized to the level of GAPDH)” value stood at 0.81, the “Percent Reduction of the ENaCα mRNA relative to a non-targeting control siNA (NTC)” value is reported as −23.6% and the “Avg GAPDH Expression” value was 119.04. In the data set on rSCNN1A (r ENaCα) mRNA, the “Mean (rSCNN1A expression normalized to the level of rGAPDH)” value was found to be 0.58, the “Percent Reduction of the r ENaCα mRNA relative to a non-targeting control siNA (NTCs)” value was found to be 36.7%, the “Avg ENaCα Expression (rSCNN1A)” value was found to be 19.09 and the “Avg GAPDH Expression (rGAPDH)” value was 30.04.

For the substance “B GuGuGGcuGuGccuAcAuc TTB / GAUGuAGGcAcAGccAcAcUU (sense GUGUGGCUGUGCCUACAUCTT; antisense GAUGUAGGCACAGCCACACUU; siRNA; B caps on sense ends, letter-case modifications not given here, further chemistry not given here) [Site 1383]”, in the data set on ENaCα mRNA, the “Avg ENaCα Expression” value amounted to 40.44, the “Mean (level of ENaCα expression normalized to the level of GAPDH)” value is on record as 0.78, the “Percent Reduction of the ENaCα mRNA relative to a non-targeting control siNA (NTC)” value is reported as 49.8% and the “Avg GAPDH Expression” value is 52.36. In addition, in the data set on ENaCα mRNA, the IC50 came out at 0.41 nM and the “Human % KD (efficacy of ENaCα mRNA knockdown)” value is on record as 50-70%. Besides, in the data set with rSCNN1A (r ENaCα) mRNA, the “Mean (rSCNN1A expression normalized to the level of rGAPDH)” value is 0.63, the “Percent Reduction of the r ENaCα mRNA relative to a non-targeting control siNA (NTCs)” value was determined as 50.7%, the “Avg ENaCα Expression (rSCNN1A)” value is recorded as 15.01 and the “Avg GAPDH Expression (rGAPDH)” value is given as 23.52. In addition, in the data set with rSCNN1A (r ENaCα) mRNA, the half-maximal inhibitory concentration (IC50) turned out to be 1 nM and the “Rat % KD (efficacy of ENaCα mRNA knockdown)” value was 50%.

The values are drawn from patent US20110288154A1, “RNA Interference Mediated Inhibition of Epithelial Sodium Channel (ENaC) Gene Expression Using Short Interfering Nucleic Acid (siNA)” (MERCK & CO., INC., priority 2008, published 2011).
